From patent US20250332266A1, “COMPOUNDS FOR THE DEGRADATION OF EGFR KINASE” (BeiGene Switzerland GmbH, priority 2022, published 2025)

How the values were obtained:
[1] = molecular target: T1, EGFR L858R/T790M/C797S (H1975-clone #25) (Homo sapiens, UniProt P00533, C797S/L858R/T790M); assay: EGFR degradation, HTRF total-EGFR assay, H1975-clone #25 (LTC); type: cell-based; conditions: H1975-clone #25 L858R/T790M/C797S, 16 h treatment
T1 construct: expressed in transfected cells; host or cells: H1975 (clone #25), lentiviral transduction, endogenous EGFR knocked out
T1 sequence (P00533 25-1210 T790M/C797S/L858R): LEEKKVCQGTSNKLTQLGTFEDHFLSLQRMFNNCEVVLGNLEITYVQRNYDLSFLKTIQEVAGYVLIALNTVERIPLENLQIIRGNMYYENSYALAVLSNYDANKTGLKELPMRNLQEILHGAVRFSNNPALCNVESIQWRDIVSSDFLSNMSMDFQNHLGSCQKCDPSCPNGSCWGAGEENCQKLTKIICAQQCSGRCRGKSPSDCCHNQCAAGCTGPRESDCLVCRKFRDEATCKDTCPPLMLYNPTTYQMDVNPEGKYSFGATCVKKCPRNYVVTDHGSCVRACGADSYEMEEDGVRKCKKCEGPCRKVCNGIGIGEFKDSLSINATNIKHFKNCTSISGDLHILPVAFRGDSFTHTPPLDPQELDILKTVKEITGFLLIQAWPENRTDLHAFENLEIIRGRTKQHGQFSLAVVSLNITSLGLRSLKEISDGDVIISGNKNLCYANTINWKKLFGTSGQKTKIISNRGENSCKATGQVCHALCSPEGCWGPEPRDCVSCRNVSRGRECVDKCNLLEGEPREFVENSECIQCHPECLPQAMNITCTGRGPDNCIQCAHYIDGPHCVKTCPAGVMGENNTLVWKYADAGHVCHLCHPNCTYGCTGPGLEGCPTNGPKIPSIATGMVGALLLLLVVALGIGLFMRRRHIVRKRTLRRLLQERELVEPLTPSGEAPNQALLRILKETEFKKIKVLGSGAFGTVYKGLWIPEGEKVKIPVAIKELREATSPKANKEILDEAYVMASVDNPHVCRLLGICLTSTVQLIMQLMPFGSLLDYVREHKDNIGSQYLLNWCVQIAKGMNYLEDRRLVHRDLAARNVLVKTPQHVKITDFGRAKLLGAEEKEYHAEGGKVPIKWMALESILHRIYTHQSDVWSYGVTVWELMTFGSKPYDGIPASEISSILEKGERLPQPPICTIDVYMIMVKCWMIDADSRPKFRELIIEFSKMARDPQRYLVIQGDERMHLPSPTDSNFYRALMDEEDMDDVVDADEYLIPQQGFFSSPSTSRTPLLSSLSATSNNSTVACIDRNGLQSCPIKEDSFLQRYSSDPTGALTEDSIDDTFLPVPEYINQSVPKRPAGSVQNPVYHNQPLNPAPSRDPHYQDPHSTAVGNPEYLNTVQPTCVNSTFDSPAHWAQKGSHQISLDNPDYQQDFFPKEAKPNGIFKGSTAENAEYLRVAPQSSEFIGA
Excerpt: (§1) H1975-clone #28 (Del19/T790M/C797S, or abbr: DTC), H1975-clone #23 (Del19/C797S, or abbr: DC), H1975-clone #25 (L858R/T790M/C797S, or abbr: LTC) and H1975-clone #8 (L858R/C797S, or abbr: LC). EGFR-Del19/T790M/C797S, EGFR-Del19/C797S, EGFR-L858R/T790M/C797S and EGFR-L858R/C797S were stably expressed in H1975 cell lines by lentivirus-mediated over-expression, respectively. The EGFR over-expressed cells then underwent knockout, in which the EGFR targeting sgRNA was designed to only target the endogenous EGFR copies and preserve the exogenous EGFR copies. Followed by the knockout, the edited H1975 cells were seeded in 96 well plates at the concentration of 1 cell/well, cultured for about 2 weeks to allow single clones formation. The formed clones were screened by DNA sequencing and whole exon sequencing analysis for the desired edition. H1975-clone #28, H1975-clone #23, H1975-clone #25 and H1975-clone #8 were finally confirmed as homozygous Del19/T790M/C797S EGFR, Del19/C797S EGFR, L858R/T790M/C797S EGFR and L858R/C797S EGFR clones, respectively.
(§2) H1975-#25, H1975-#28, H1975-#23 and H1975-#8 cells are treated with compounds diluted in 0.2% DMSO cell culture medium on day 2, incubate for 16 h, 37° C., 5% CO2. The final concentration of compounds in all assay is start with 10 μM, 5-fold dilution, total 8 doses were included.
(§3) Total-EGFR cellular kit(64NG1PEH) were used for evaluating EGFR degradation.
(§4) After 16 h treatment, add HTRF lysis buffer to each well; seal the plate and incubate 1 hour at room temperature on a plate shaker; Once the cells are lysed, 16 μL of cell lysate are transferred to a PE 384-well HTRF detection plate; 4 μL of pre-mixed HTRF antibodies are added to each well; cover the plate with a plate sealer, spin 1000 rpm for 1 min, incubate overnight at room temperature; read on BMG PheraStar with HTRF protocol (337 nm-665 nm-620 nm).
(§5) The inhibition (degradation) percentage of the compound was calculated by the following equation:
(§6) Inhibition percentage of Compound=100−100×(Signal−low control)/(High control−low control), wherein signal=each test compound group
(§7) High control=Cell group with added DMSO and without compound, indicating microplate readings without EGFR degradation.
(§8) Imax (Dmax) is the maximum percentage of inhibition (degradation).
(§9) The IC50 (DC50) value of a compound can be obtained by fitting the following equation
(§10) Wherein, X and Y are known values, and IC50, Hillslope, Top and Bottom are the parameters obtained by fitting with software. Y is the inhibition percentage (calculated from the equation), X is the concentration of the compound; IC50 is the concentration of the compound when the 50% inhibition is reached. The smaller the IC50 value is, the stronger the inhibitory ability of the compound is. Vice versa, the higher the IC50 value is, the weaker the ability the inhibitory ability of the compound is; Hillslope represents the slope of the fitted curve, generally around 1*; Bottom represents the minimum value of the curve obtained by data fitting, which is generally 0%±20%; Top represents the maximum value of the curve obtained by data fitting, which is generally 100%±20%. The experimental data were fitted by calculating and analyzing with Dotmatics data analysis software.

[2] = molecular target: EGFR Del19/T790M/C797S (H1975-clone #28) (Homo sapiens, UniProt P00533, T790M/C797S, form not given); assay: EGFR degradation, HTRF total-EGFR assay, H1975-clone #28 (DTC); type: cell-based; conditions: H1975-clone #28 Del19/T790M/C797S, 16 h treatment
Sequence of EGFR Del19/T790M/C797S (H1975-clone #28) (P00533 with tags, fused parts or gaps DEL746-750/T790M/C797S, form open): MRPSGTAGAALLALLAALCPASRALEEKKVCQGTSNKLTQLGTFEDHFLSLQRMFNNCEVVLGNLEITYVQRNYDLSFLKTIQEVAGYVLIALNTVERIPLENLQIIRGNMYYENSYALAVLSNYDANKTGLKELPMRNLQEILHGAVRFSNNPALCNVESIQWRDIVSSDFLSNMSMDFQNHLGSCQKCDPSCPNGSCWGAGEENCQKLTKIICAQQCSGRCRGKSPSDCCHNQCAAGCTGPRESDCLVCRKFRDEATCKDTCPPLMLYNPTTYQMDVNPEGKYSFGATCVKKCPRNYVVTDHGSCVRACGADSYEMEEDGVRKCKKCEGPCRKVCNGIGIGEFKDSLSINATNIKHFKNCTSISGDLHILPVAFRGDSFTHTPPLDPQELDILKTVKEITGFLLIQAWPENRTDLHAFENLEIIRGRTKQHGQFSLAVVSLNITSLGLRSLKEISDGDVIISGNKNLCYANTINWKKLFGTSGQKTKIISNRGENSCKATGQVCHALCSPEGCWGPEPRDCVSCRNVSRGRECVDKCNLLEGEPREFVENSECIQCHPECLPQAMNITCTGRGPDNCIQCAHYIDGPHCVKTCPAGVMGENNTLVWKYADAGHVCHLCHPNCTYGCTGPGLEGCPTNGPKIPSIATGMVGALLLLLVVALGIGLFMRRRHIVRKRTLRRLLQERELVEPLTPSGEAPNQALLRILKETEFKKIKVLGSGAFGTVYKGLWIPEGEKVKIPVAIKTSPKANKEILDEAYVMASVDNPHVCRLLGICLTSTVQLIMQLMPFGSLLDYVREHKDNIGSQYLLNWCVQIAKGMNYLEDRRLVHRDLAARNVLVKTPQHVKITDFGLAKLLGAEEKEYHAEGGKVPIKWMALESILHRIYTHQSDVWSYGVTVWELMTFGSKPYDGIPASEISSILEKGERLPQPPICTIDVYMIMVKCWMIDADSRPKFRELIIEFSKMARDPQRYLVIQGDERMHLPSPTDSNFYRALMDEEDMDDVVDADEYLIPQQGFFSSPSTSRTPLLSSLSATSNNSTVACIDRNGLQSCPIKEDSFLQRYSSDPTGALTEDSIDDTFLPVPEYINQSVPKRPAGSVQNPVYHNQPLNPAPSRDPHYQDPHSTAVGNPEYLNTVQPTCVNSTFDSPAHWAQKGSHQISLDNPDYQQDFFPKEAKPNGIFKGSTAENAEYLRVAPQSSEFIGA
Excerpt: as §1, §2, §3, §4, §5, §6, §7, §8, §9, §10

Degradation H1975 # 25-LTC [1]	Degradation H1975 # 28 DTC [2]	SMILES
83.9	77.1	Cc1cc2cc(n1)-c1cnn(C)c1OC[C@H]1C[C@@H](CN3/C(=N/C2=O)Nc2ccc(N4CCN(CCNc5cc(F)c([C@H]6CCC(=O)NC6=O)c(F)c5)CC4)cc23)C1 (single isomer, unassigned) [Example 14]
62.0	84.3	Cc1cc2cc(n1)-c1cnn(C)c1OC[C@H]1C[C@H](CN3/C(=N/C2=O)Nc2ccc(CN4CCN(C(=O)C5CN(c6cc(F)c([C@H]7CCC(=O)NC7=O)c(F)c6)CC5(C)C)CC4)cc23)C1 (stereo partly drawn) [Example 2, (R)-3-(4-((S)-4-(4-(((7^1r,7^3S,E)-1^1,2^6-dimethyl-3-oxo-5^2,5^3-dihydro-1^2H,5′H-9-oxa-4-aza-5(2,1)-benzo[d]imidazola-2(2,4)-pyridina-1(4,5)-pyrazola-7(1,3)-cyclobutanacyclononaphane-5^6-yl)methyl)piperazine-1-carbonyl)-3,3-dimethylpyrrolidin-1-yl)-2,6-difluorophenyl)piperidine-2,6-dione]
85.6	86.7	Cc1cc2cc(n1)-c1cnn(C)c1OC[C@H]1C[C@@H](CN3/C(=N/C2=O)Nc2ccc(CN4CCN(C(=O)C5CN(c6cc(F)c([C@H]7CCC(=O)NC7=O)c(F)c6)C5)CC4)cc23)C1 [Example 3, (R)-3-(4-(3-(4-(((7^1s,7^3s,E)-1^1,2^6-dimethyl-3-oxo-5^2,5^3-dihydro-1^1H,5^1H-9-oxa-4-aza-5(2,1)-benzo[d]imidazola-2(2,4)-pyridina-1(4,5)-pyrazola-7(1,3)-cyclobutanacyclononaphane-5^6-yl)methyl)piperazine-1-carbonyl)azetidin-1-yl)-2,6-difluorophenyl)piperidine-2,6-dione]
86.6	84.6	Cc1cc2cc(n1)-c1cnn(C)c1OC[C@H]1C[C@@H](CN3/C(=N/C2=O)Nc2ccc(CN4CCN(C(=O)C5CN(c6cc(F)c([C@H]7CCC(=O)NC7=O)c(F)c6)CC5(C)C)CC4)cc23)C1 (stereo partly drawn) [Example 4, (R)-3-(4-((S)-4-(4-(((7^1s,7^3R,E)-1^1,2^6-dimethyl-3-oxo-5^2,5^3-dihydro-1^1H,5^1H-9-oxa-4-aza-5(2,1)-benzo[d]imidazola-2(2,4)-pyridina-1(4,5)-pyrazola-7(1,3)-cyclobutanacyclononaphane-5^6-yl)methyl)piperazine-1-carbonyl)-3,3-dimethylpyrrolidin-1-yl)-2,6-difluorophenyl)piperidine-2,6-dione]
85.4	91.5	Cc1cc2cc(n1)-c1cnn(C)c1OC[C@H]1C[C@@H](CN3/C(=N/C2=O)Nc2ccc(N4CCN(CC5CN(c6cc(F)c([C@H]7CCC(=O)NC7=O)c(F)c6)C5)CC4=O)cc23)C1 [Example 11, (R)-3-(4-(3-((4-((7^1s,7^3s,E)-1^1,2^6-dimethyl-3-oxo-5^2,5^3-dihydro-1^1H,5^1H-9-oxa-4-aza-5(2,1)-benzo[d]imidazola-2(2,4)-pyridina-1(4,5)-pyrazola-7(1,3)-cyclobutanacyclononaphane-5^6-yl)-3-oxopiperazin-1-yl)methyl)azetidin-1-yl)-2,6-difluorophenyl)piperidine-2,6-dione]

More lines, now with the values behind:

SMILES	Degradation H1975 # 25-LTC [1]	Degradation H1975 # 28 DTC [2]
Cc1cc2cc(n1)-c1cnn(C)c1OC[C@H]1C[C@@H](CN3/C(=N/C2=O)Nc2ccc(N4CCN([C@H]5C[C@@H](Nc6cc(F)c([C@H]7CCC(=O)NC7=O)c(F)c6)C5)CC4)cc23)C1 (single isomer, unassigned) [Example 16]	64.0	71.5
Cc1cc2cc(n1)-c1cnn(C)c1OC[C@H]1C[C@@H](CN3/C(=N/C2=O)Nc2ccc(N4CCN(C5CCN(c6cnc(C7CCC(=O)NC7=O)c(F)c6)CC5)CC4)cc23)C1 (single isomer, unassigned) [Example 38, 3-(5-(4-(4-((7^1s,7^3s,E)-1^1,2^6-dimethyl-3-oxo-5^2,5^3-dihydro-1^1H,5^1H-9-oxa-4-aza-5(2,1)-benzo[d]imidazola-2(2,4)-pyridina-1(4,5)-pyrazola-7(1,3)-cyclobutanacyclononaphane-5^6-yl)piperazin-1-yl)piperdine-1-yl)-3-fluoropyridin-2-yl)piperidine 6-dione]	81.4	78.4
Cc1cc2cc(n1)-c1cnn(C)c1OC[C@H]1C[C@@H](CN3/C(=N/C2=O)Nc2ccc(N4CCN(C5CCN(c6cnc(C7CCC(=O)NC7=O)cc6C)CC5)C[C@H]4C)cc23)C1 (stereo partly drawn) [Example 1, 3-(5-(4-((R)-4-((7^1s,7^3S,E)-1^1,2^6-dimethyl-3-oxo-5^2,5^3-dihydro-1^1H,5^1H-9-oxa-4-aza-5(2,1)-benzo[d]imidazola-2(2,4)-pyridina-1(4,5)-pyrazola-7(1,3)-cyclobutanacyclononaphane-5^6-yl)-3-methylpiperazin-1-yl)piperidin-1-yl)-4-methylpyridin-2-yl)piperidine-2,6-dione]	92.8	91.9
Cc1cc2cc(n1)-c1cnn(C)c1OC[C@H]1C[C@@H](CN3/C(=N/C2=O)Nc2ccc(N4CCC(N5CCN(c6cnc(C7CCC(=O)NC7=O)cc6C)CC5)CC4)cc23)C1 (stereo partly drawn) [Example 5, 3-(5-(4-(1-((7^1s,7^3s,E)-1^1,2^6-dimethyl-3-oxo-5^2,5^3-dihydro-1^1H,5^1H-9-oxa-4-aza-5(2,1)-benzo[d]imidazola-2(2,4)-pyridina-1(4,5)-pyrazola-7(1,3)-cyclobutanacyclononaphane-5^6-yl)piperidin-4-yl)piperazin-1-yl)-4-methylpyridin-2-yl)piperidine-2,6-dione]	92.9	92.2
Cc1cc2cc(n1)-c1cnn(C)c1OC[C@H]1C[C@@H](CN3/C(=N/C2=O)Nc2ccc(N4CCN(C5CCN(c6ccc(C7CCC(=O)NC7=O)nc6)CC5)C[C@H]4C)cc23)C1 (stereo partly drawn) [Example 7, 3-(5-(4-((R)-4-((7^1s,7^3S,E)-1^1,2^6-dimethyl-3-oxo-5^2,5^3-dihydro-1^1H,5^1H-9-oxa-4-aza-5(2,1)-benzo[d]imidazola-2(2,4)-pyridina-1(4,5)-pyrazola-7(1,3)-cyclobutanacyclononaphane-5^6-yl)-3-methylpiperazin-1-yl)piperidin-1-yl)pyridin-2-yl)piperidine-2,6-dione]	78.6	80.6
Cc1cc2cc(n1)-c1cnn(C)c1OC[C@H]1C[C@@H](CN3/C(=N/C2=O)Nc2ccc(N4CCN(CCc5cc(F)c([C@H]6CCC(=O)NC6=O)c(F)c5)CC4=O)cc23)C1 [Example 9, (R)-3-(4-(2-(4-((7^1s,7^3s,E)-1^1,2^6-dimethyl-3-oxo-5^2,5^3-dihydro-1^1H,5^1H-9-oxa-4-aza-5(2,1)-benzo[d]imidazola-2(2,4)-pyridina-1(4,5)-pyrazola-7(1,3)-cyclobutanacyclononaphane-5^6-yl)-3-oxopiperazin-1-yl)ethyl)-2,6-difluorophenyl)piperidine-2,6-dione]	88.5	90.9
Cc1cc2cc(n1)-c1cnn(C)c1OC[C@H]1C[C@@H](CN3/C(=N/C2=O)Nc2ccc(N4CCN(C5CCN(c6cc(F)c([C@H]7CCC(=O)NC7=O)c(F)c6)CC5)CC4=O)cc23)C1 [Example 10, (R)-3-(4-(4-(4-((7^1s,7^3s,E)-1^1,2^6-dimethyl-3-oxo-5^2,5^3-dihydro-1^1H,5^1H-9-oxa-4-aza-5(2,1)-benzo[d]imidazola-2(2,4)-pyridina-1(4,5)-pyrazola-7(1,3)-cyclobutanacyclononaphane-5^6-yl)-3-oxopiperazin-1-yl)piperidin-1-yl)-2,6-difluorophenyl)piperidine-2,6-dione]	89.8	90.6
